Measured values as given in patent US10098880B2 (CELLWORKS GROUP INC., priority 2014, dated 2018).

Key:
[1] = cited from earlier work
HMG-CoA reductase = biological target: T1, HMG-CoA reductase (Homo sapiens, UniProt P04035); details: in vitro; cited from earlier work
T1 sequence (P04035 1-888): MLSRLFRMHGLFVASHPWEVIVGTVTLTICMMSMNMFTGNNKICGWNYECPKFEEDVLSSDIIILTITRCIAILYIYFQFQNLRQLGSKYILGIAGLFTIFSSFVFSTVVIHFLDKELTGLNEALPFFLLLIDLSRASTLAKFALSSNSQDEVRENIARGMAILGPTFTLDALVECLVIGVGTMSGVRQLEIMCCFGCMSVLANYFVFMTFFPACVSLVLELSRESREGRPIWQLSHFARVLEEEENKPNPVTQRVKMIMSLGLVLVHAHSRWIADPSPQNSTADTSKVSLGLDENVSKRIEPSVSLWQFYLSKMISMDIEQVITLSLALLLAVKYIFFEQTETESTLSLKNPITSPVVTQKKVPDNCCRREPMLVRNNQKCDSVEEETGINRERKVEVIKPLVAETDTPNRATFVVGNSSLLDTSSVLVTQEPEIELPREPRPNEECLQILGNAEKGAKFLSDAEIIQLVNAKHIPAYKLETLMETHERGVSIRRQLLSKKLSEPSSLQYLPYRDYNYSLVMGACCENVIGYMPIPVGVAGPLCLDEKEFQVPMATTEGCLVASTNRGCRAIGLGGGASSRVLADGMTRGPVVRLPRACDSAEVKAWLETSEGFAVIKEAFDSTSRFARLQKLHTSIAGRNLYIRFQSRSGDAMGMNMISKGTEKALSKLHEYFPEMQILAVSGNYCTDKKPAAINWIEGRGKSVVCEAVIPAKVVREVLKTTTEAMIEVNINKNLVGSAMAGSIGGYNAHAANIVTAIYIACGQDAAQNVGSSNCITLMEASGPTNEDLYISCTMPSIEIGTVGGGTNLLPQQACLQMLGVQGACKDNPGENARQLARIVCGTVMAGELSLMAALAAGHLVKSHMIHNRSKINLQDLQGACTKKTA

[2] = system: U251 cell line (PTEN, TP53 and CDKN2A mutated); experiment: In-vitro relative growth assay (CellTiter 96 Aqueous One), U251 cell line; type: cell-based, human; details: FIG. 4A: Nelfinavir 5 μM, Metformin 0.5 mM, Rosuvastatin 12.5 μM, individually or combined, about 71 hours
Protocol: (§1) U251 cell line is procured from Sigma-Aldrich (Catalog number: 09063001). The U87 human cell line is procured from ATCC (American Type Culture Collection, Manassas, Va., ATCC® HTB-14TM). LN229 cell line is procured from ATCC (American Type Culture Collection, Manassas, Va., […]). […] 100 μl/well of the diluted sample is added to assay plate containing resuspended cells. […] The assay plate is incubated for about 71 hours followed by addition of about 20 μl of Promega Substrate CellTiter 96 Aqueous One Solution Reagent to each well. It is incubated at 37° C. The absorbance of the sample is read at about 490 nm.

[3] = system: U87 cell line (PTEN and CDKN2A mutated); experiment: In-vitro relative growth assay (CellTiter 96 Aqueous One), U87 cell line; type: cell-based, human; details: FIG. 4A: Nelfinavir 5 μM, Metformin 0.5 mM, Rosuvastatin 12.5 μM, individually or combined, about 71 hours
Protocol: [table] U251 cell line is procured from Sigma-Aldrich (Catalog number: 09063001). The U87 human cell line is procured from ATCC (American Type Culture Collection, Manassas, Va., ATCC® HTB-14TM). LN229 cell line is procured from ATCC (American Type Culture Collection, Manassas, Va., […]). […] DMSO, Digitoxin and drugs (Nelfinavir, Metformin and Rosuvastatin individually and in combination) are serial diluted in an assay media. 100 μl/well of the diluted sample is added to assay plate containing resuspended cells. […] The assay plate is incubated for about 71 hours followed by addition of about 20 μl of Promega Substrate CellTiter 96 Aqueous One Solution Reagent to each well. It is incubated at 37° C. The absorbance of the sample is read at about 490 nm.

[4] = system: LN229 cell line (TP53 and CDKN2A mutated); experiment: In-vitro relative growth assay (CellTiter 96 Aqueous One), LN229 cell line; type: cell-based, human; details: FIG. 4A: Nelfinavir 5 μM, Metformin 0.5 mM, Rosuvastatin 12.5 μM, individually or combined, about 71 hours
Protocol: as §1

AKT = AKT (Homo sapiens, UniProt P31749); details: reported, PMID 23454896; inhibition of AKT phosphorylation at Ser473; cited from earlier work
Chain of AKT (P31749 whole entry): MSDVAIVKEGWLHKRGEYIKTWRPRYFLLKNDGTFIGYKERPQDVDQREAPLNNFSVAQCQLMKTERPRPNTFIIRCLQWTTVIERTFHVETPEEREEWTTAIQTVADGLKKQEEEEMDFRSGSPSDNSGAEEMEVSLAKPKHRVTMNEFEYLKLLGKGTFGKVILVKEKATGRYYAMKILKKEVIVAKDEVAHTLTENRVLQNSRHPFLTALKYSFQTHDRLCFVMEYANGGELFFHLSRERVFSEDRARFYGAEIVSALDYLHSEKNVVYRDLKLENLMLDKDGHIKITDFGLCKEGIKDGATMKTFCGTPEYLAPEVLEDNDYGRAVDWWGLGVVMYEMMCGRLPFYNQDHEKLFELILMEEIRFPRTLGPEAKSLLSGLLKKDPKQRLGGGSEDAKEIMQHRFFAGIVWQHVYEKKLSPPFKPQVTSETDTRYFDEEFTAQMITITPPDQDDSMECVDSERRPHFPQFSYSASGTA

[5] = cited from earlier work; remark: listed apart in the source
[6] = cited from earlier work; remark: listed apart in the source
[7] = oral 750 mg dose containing 14C-nelfinavir

CN(C)C(=N)N=C(N)N [Metformin, 1-carbamimidamido-N,N-dimethyl-methanimidamide]
time of peak action ([1]; after oral administration): 3 h
Duration of action ([1]; in vivo): 8 to 12 h
time over which absorbed ([1]; in vivo): 6 h
drug eliminated in 24 hours ([1]; those with healthy renal function): Approximately 90%

CC(C)c1nc(NS(C)(=O)=O)nc(-c2ccc(F)cc2)c1/C=C/[C@@H](O)C[C@@H](O)CC(=O)O [N-desmethylrosuvastatin]
pharmacological activity relative to parent compound (HMG-CoA reductase): approximately 50%

Cc1c(O)cccc1C(=O)N[C@@H](CSc1ccccc1)[C@H](O)CN1C[C@H]2CCCC[C@H]2C[C@H]1C(=O)NC(C)(C)C [Nelfinavir, (3S,4aS,8aS)-N-tert-butyl-2-[(2R,3R)-2-hydroxy-3-[(3-hydroxy-2-methylbenzoyl)amino]-4-phenylsulfanylbutyl]-3,4,4a,5,6,7,8,8a-octahydro-1H-isoquinoline-3-carboxamide]
reduction in relative growth [2]: do not show much efficacy
reduction in relative growth [3]: do not show much efficacy
reduction in relative growth [4]: do not show much efficacy
concentration causing AKT inhibition (AKT): 20 µM
predominant enzymes that metabolize nelfinavir ([5]; in humans, hepatic CYP450): CYP3A and CYP2C19
Half-life (terminal half-life in plasma) ([5]; in vivo): 3.5 to 5 h
dose recovered in the feces [5, 7]: 87%
dose recovered in urine [5, 7]: 1-2%
fecal radioactivity as oxidative metabolites [5, 7]: 78%
fecal radioactivity as unchanged nelfinavir [5, 7]: 22%
Absorption ([5]; oral administration): Well absorbed

CC(C)c1nc(N(C)S(C)(=O)=O)nc(-c2ccc(F)cc2)c1/C=C/[C@@H](O)C[C@@H](O)CC(=O)O [Rosuvastatin, (E,3R,5S)-7-[4-(4-fluorophenyl)-2-[methyl(methylsulfonyl)amino]-6-propan-2-ylpyrimidin-5-yl]-3,5-dihydroxyhept-6-enoic acid]
reduction in relative growth [2]: do not show much efficacy
reduction in relative growth [3]: do not show much efficacy
reduction in relative growth [4]: do not show much efficacy
total body clearance by the hepatic route ([6]; after an intravenous dose): 72%
total body clearance via the renal route ([6]; after an intravenous dose): approximately 28%
excreted in the feces (rosuvastatin and its metabolites) ([6]; following oral administration): 90%
Bioavailability ([6]; in vivo): approximately 20%
Half-life ([6]; in vivo): 19 h
excreted as metabolite ([6]; in vivo): ~10%
increase of AUC by inhibitors of CYP2C9 ([6]; in vivo): less than 2 fold
radiolabeled dose recovered as metabolite ([6]; in vivo): approximately 10%
share of the pharmacologic action accounted for by parent ([6]; in vivo): greater than 90%
